# Measured values taken from patent publication US12378224B2 (Dong-A Socio Holdings Co., Ltd., priority 2016, dated 2025).
# Molecular target: human c-MER catalytic domain (Homo sapiens (Human), UniProt Q12866)
# Experiment: TR-FRET Kinase Activity Biochemical Assay (LanthaScreen)
# Conditions: 10 uM ATP, 1 hour, kinase not given
# In short: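 Recombinant human c-MER catalytic domain phosphorylated fluorescein-labeled poly-GT substrate. The reaction was stopped with 10 mM EDTA, then 2 nM Tb-labeled anti-phosphotyrosine antibody was added for 30 min. Kinase activity was taken from the 495/520 nm TR-FRET emission ratio after 340 nm excitation.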
# human c-MER catalytic domain, sequence (Q12866 587-858): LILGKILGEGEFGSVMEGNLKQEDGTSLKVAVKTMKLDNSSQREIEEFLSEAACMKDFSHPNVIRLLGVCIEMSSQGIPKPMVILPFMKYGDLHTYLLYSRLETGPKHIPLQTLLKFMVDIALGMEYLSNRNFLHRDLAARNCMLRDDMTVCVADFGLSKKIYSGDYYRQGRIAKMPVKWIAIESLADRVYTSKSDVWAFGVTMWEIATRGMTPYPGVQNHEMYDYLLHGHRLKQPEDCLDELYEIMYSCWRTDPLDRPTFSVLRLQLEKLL
row,IC50,Structure (SMILES)
1,0.01 to 0.1 µM,"Cn1cc(-c2cnc3[nH]nc(N[C@@H]4CCN(C(=O)c5ccc(-c6ccccc6Cl)cc5)C4)c3c2)cn1 [Example 617, (R)-(2′-chloro-[1,1′-biphenyl]-4-yl)(3-((5-(1-methyl-1H-pyrazol-4-yl)-1H-pyrazolo[3,4-b]pyridin-3-yl)amino)pyrrolidin-1-yl)methanone]"
2,0.1 to 1 µM,"Cn1cc(-c2cnc3[nH]nc(N[C@@H]4CCN(C(=O)c5ccc(-c6ccc(Oc7ccc(N)cc7)cc6)cc5)C4)c3c2)cn1 [Example 620, (R)-(4′-(4-aminophenoxy)-[1,1′-biphenyl]-4-yl)(3-((5-(1-methyl-1H-pyrazol-4-yl)-1H-pyrazolo[3,4-b]pyridin-3-yl)amino)pyrrolidin-1-yl)methanone]"
3,0.1 to 1 µM,"CN1CCN(Cc2ccc(-c3cc(CN4CC[C@@H](NC(=O)c5cc(-c6cnn(C)c6)cnc5N)C4)ccc3F)cc2)CC1 [Example 633, (R)-2-amino-N-(1-((6-fluoro-4′-((4-methylpiperazin-1-yl)methyl)-[1,1′-biphenyl]-3-yl)methyl)pyrrolidin-3-yl)-5-(1-methyl-1H-pyrazol-4-yl)nicotinamide]"
4,0.1 to 1 µM,"Cn1cc(-c2cnc(N)c(C(=O)N[C@@H]3CCN(C(=O)c4ccc(-c5ccc(S(=O)(=O)N6CCC6)cc5)cc4)C3)c2)cn1 [Example 660, (R)-2-amino-N-(1-(4′-(azetidin-1-ylsulfonyl)-[1,1′-biphenyl]-4-carbonyl)pyrrolidin-3-yl)-5-(1-methyl-1H-pyrazol-4-yl)nicotinamide]"
5,0.1 to 1 µM,"CSc1ccc(-c2ccc(C(=O)N3CC[C@@H](NC(=O)c4cc(-c5cnn(C)c5)cnc4N)C3)cc2)cc1 [Example 665, (R)-2-amino-5-(1-methyl-1H-pyrazol-4-yl)-N-(1-(4′-(methylthio)-[1,1′-biphenyl]-4-carbonyl)pyrrolidin-3-yl)nicotinamide]"
6,0.1 to 1 µM,"CCSc1ccc(-c2ccc(C(=O)N3CC[C@@H](NC(=O)c4cc(-c5cnn(C)c5)cnc4N)C3)cc2)cc1 [Example 666, (R)-2-amino-N-(1-(4′-(ethylthio)-[1,1′-biphenyl]-4-carbonyl)pyrrolidin-3-yl)-5-(1-methyl-1H-pyrazol-4-yl)nicotinamide]"
7,0.1 to 1 µM,"Cn1cc(-c2cnc(N)c(C(=O)N[C@@H]3CCN(C(=O)c4ccc(-c5ccc(CCC(=O)O)cc5)cc4)C3)c2)cn1 [Example 678, (R)-3-(4′-(3-(2-amino-5-(1-methyl-1H-pyrazol-4-yl)nicotinamido)pyrrolidine-1-carbonyl)-[1,1′-biphenyl]-4-yl) propanoic acid]"
8,0.1 to 1 µM,"Cn1cc(-c2cnc(N)c(C(=O)N[C@H]3CN(C(=O)c4ccc(-c5ccccc5)cc4)C[C@@H]3O)c2)cn1 [Example 742, N-((3S,4S)-1-([1,1′-biphenyl]-4-carbonyl)-4-hydroxypyrrolidin-3-yl)-2-amino-5-(1-methyl-1H-pyrazol-4-yl)nicotinamide]"
9,0.01 to 0.1 µM,"Cn1cc(-c2cnc(N)c(C(=O)N[C@@H]3CCN(C(=O)c4ccc(-c5ccc(F)cc5Cl)cc4)C3)n2)cn1 [Example 745, (R)-3-amino-N-(1-(2′-chloro-4′-fluoro-[1,1′-biphenyl]-4-carbonyl)pyrrolidin-3-yl)-6-(1-methyl-1H-pyrazol-4-yl)pyrazine-2-carboxamide]"
10,0.01 to 0.1 µM,"Nc1ncc(-c2ccc(N3CCOCC3)cc2)cc1C(=O)N[C@@H]1CCN(C(=O)c2ccc(-c3ccc(F)cc3Cl)cc2)C1 [Example 782, (R)-2-amino-N-(1-(2′-chloro-4′-fluoro-[1,1′-biphenyl]-4-carbonyl)pyrrolidin-3-yl)-5-(4-morpholinophenyl)nicotinamide]"
11,0.01 to 0.1 µM,"Cn1cc(-c2cnc3[nH]nc(N[C@@H]4CCN(C(=O)c5ccc(-c6ccc7c(c6)CCCN7)cc5)C4)c3c2)cn1 [Example 790, (R)-(3-((5-(1-methyl-1H-pyrazol-4-yl)-1H-pyrazolo[3,4-b]pyridin-3-yl)amino)pyrrolidin-1-yl)(4-(1,2,3,4-tetrahydroquinolin-6-yl)phenyl)methanone]"
12,0.1 to 1 µM,"Cn1cc(-c2cnc3[nH]nc(N[C@@H]4CCN(C(=O)c5ccc(Oc6ccccc6)cc5)C4)c3c2)cn1 [Example 791, (R)-(3-((5-(1-methyl-1H-pyrazol-4-yl)-1H-pyrazolo[3,4-b]pyridin-3-yl)amino)pyrrolidin-1-yl)(4-phenoxyphenyl)methanone]"
13,0.1 to 1 µM,"Cn1cc(-c2cnc3[nH]nc(N[C@@H]4CCN(C(=O)c5ccc(-c6ccc(CN7CCOCC7)cc6)cc5)C4)c3c2)cn1 [Example 793, (R)-(3-((5-(1-methyl-1H-pyrazol-4-yl)-1H-pyrazolo[3,4-b]pyridin-3-yl)amino)pyrrolidin-1-yl)(4′-(morpholinomethyl)-[1,1′-biphenyl]-4-yl)methanone]"
14,0.1 to 1 µM,"Cn1cc(-c2cnc(N)c(C(=O)N[C@@H]3CCN(C(=O)c4ccc(-c5ccc(C(C)(C)N)cc5)cc4)C3)c2)cn1 [Example 801, (R)-2-amino-N-(1-(4′-(2-aminopropan-2-yl)-[1,1′-biphenyl]-4-carbonyl)pyrrolidin-3-yl)-5-(1-methyl-1H-pyrazol-4-yl)nicotinamide]"
15,0.01 to 0.1 µM,"Cn1cc(-c2cnc(N)c(C(=O)N[C@@H]3CCN(C(=O)c4ccc(-c5ccc(Nc6ccc(N)cc6)cc5)cc4)C3)c2)cn1 [Example 815, (R)-2-amino-N-(1-(4′-((4-aminophenyl)amino)-[1,1′-biphenyl]-4-carbonyl)pyrrolidin-3-yl)-5-(1-methyl-1H-pyrazol-4-yl)nicotinamide]"

# Further lines, the compound ahead of its results:
row,Structure (SMILES),IC50
1,"CN1CCN(Cc2cccc(N3CC[C@H](OC(=O)N4CC[C@@H](NC(=O)c5cc(-c6cnn(C)c6)cnc5N)C4)C3)c2)CC1 [Example 626, (S)-1-(3-((4-methylpiperazin-1-yl)methyl)phenyl)pyrrolidin-3-yl (R)-3-(2-amino-5-(1-methyl-1H-pyrazol-4-yl)nicotinamido)pyrrolidine-1-carboxylate]",> 1 µM
2,"Cn1cc(-c2cnc(N)c(C(=O)NC3CN(C(=O)c4cccc(-c5ccccc5)c4)C3)c2)cn1 [Example 670, N-(1-([1,1′-biphenyl]-3-carbonyl)azetidin-3-yl)-2-amino-5-(1-methyl-1H-pyrazol-4-yl)nicotinamide]",> 1 µM
3,"Cn1cc(-c2cnc(N)c(C(=O)NC3(CO)CCN(C(=O)c4ccc(-c5ccccc5)cc4)C3)c2)cn1 (stereo not shown) [Example 671, N-(1-([1,1′-biphenyl]-4-carbonyl)-3-(hydroxymethyl)pyrrolidin-3-yl)-2-amino-5-(1-methyl-1H-pyrazol-4-yl)nicotinamide]",0.01 to 0.1 µM
4,"Cn1cc(-c2cnc(N)c(C(=O)NC3(CO)CCN(C(=O)c4cccc(-c5ccccc5)c4)C3)c2)cn1 (stereo not shown) [Example 672, N-(1-([1,1′-biphenyl]-3-carbonyl)-3-(hydroxymethyl)pyrrolidin-3-yl)-2-amino-5-(1-methyl-1H-pyrazol-4-yl)nicotinamide]",> 1 µM
5,"Cn1cc(-c2cnc(N)c(C(=O)N[C@@H]3CCN(C(=O)c4ccc(-c5ccc(/C=C/C(=O)O)cc5)cc4)C3)c2)cn1 [Example 677, (R,E)-3-(4′-(3-(2-amino-5-(1-methyl-1H-pyrazol-4-yl)nicotinamido)pyrrolidine-1-carbonyl)-[1,1′-biphenyl]-4-yl) acrylic acid]",0.01 to 0.1 µM
6,"CCOC(=O)C1CN(C(=O)c2ccc(-c3ccccc3)cc2)CC1NC(=O)c1cc(-c2cnn(C)c2)cnc1N (stereo not shown) [Example 687, ethyl 1-([1,1′-biphenyl]-4-carbonyl)-4-(2-amino-5-(1-methyl-1H-pyrazol-4-yl)nicotinamido)pyrrolidine-3-carboxylate]",> 1 µM
7,"COC(=O)[C@H]1C[C@@H](NC(=O)c2cc(-c3cnn(C)c3)cnc2N)CN1C(=O)c1ccc(-c2ccc(F)cc2Cl)cc1 [Example 689, methyl (2R,4R)-4-(2-amino-5-(1-methyl-1H-pyrazol-4-yl)nicotinamido)-1-(2′-chloro-4′-fluoro-[1,1′-biphenyl]-4-carbonyl)pyrrolidine-2-carboxylate]",> 1 µM
8,"CCOC(=O)C1CN(C(=O)c2ccc(-c3ccc(F)cc3Cl)cc2)CC1NC(=O)c1cc(-c2cnn(C)c2)cnc1N (stereo not shown) [Example 690, ethyl 4-(2-amino-5-(1-methyl-1H-pyrazol-4-yl)nicotinamido)-1-(2′-chloro-4′-fluoro-[1,1′-biphenyl]-4-carbonyl)pyrrolidine-3-carboxylate]",> 1 µM
9,"Cn1cc(-c2cnc(N)c(C(=O)N[C@@H]3CCN(C(=O)c4cccc(-c5cnn(S(=O)(=O)c6ccccc6)c5)c4)C3)c2)cn1 [Example 717, (R)-2-amino-5-(1-methyl-1H-pyrazol-4-yl)-N-(1-(3-(1-(phenylsulfonyl)-1H-pyrazol-4-yl)benzoyl)pyrrolidin-3-yl)nicotinamide]",> 1 µM
10,"Cn1cc(-c2cnc(N)c(C(=O)N[C@H]3CN(C(=O)c4ccc(Br)cc4)C[C@@H]3O)c2)cn1 [Example 732, 2-amino-N-((3S,4S)-1-(4-bromobenzoyl)-4-hydroxypyrrolidin-3-yl)-5-(1-methyl-1H-pyrazol-4-yl)nicotinamide]",> 1 µM
11,"Cn1cc(-c2cnc(N)c(C(=O)N[C@@H]3CN(C(=O)c4ccc(-c5ccccc5)cc4)C[C@@H]3O)c2)cn1 [Example 743, N-((3R,4S)-1-([1,1′-biphenyl]-4-carbonyl)-4-hydroxypyrrolidin-3-yl)-2-amino-5-(1-methyl-1H-pyrazol-4-yl)nicotinamide]",> 1 µM
12,"CN1CCN(c2cc(-c3cnc(N)c(C(=O)N[C@@H]4CCN(C(=O)c5ccc(-c6ccc(F)cc6Cl)cc5)C4)c3)ccn2)CC1 [Example 780, (R)-6-amino-N-(1-(2′-chloro-4′-fluoro-[1,1′-biphenyl]-4-carbonyl)pyrrolidin-3-yl)-2′-(4-methylpiperazin-1-yl) -[3,4′-bipyridine]-5-carboxamide]",< 0.01 µM
13,"Cn1cc(-c2cnc3[nH]nc(N[C@@H]4CCN(C(=O)c5ccc(-c6ccc(OC7CCNCC7)cc6)cc5)C4)c3c2)cn1 [Example 792, (R)-(3-((5-(1-methyl-1H-pyrazol-4-yl)-1H-pyrazolo[3,4-b]pyridin-3-yl)amino)pyrrolidin-1-yl)(4′-(piperidin-4-yloxy)-[1,1′-biphenyl]-4-yl)methanone]",< 0.01 µM
